These results are taken from patent US20020115594A1, “Peptide antagonists at glutamate and NMDA receptors” (priority 1993, published 2002).

Ends that are not written are not given here.

The test system of experiment [1] is GnRH secretion by hypothalamic explants. Description: In vitro GnRH secretion by hypothalamic explants induced by veratridine (static incubation, GnRH radioimmunoassay). Type of experiment: cell-based, rat. The method, then: (§1) The hypothalamic explants of male Wistar rats were studied individually using a static incubation system described earlier (1-3, 9). The total incubation volume of each chamber (0.5 ml) was sampled and renewed every 7.5 min. Using these fractions, the radioimmunoassay of GnRH was performed as described in detail previously (1, 2). The secretion of GnRH was studied either in the absence of any secretagogue or during the 7.5-min exposure to 5.10^−5 M of veratridine, a depolarizing agent opening the Na^+ channel, or 5.10^−2 M of kainate or N-methyl-D, L-aspartate (NMA) which are agonists of distinct subtypes of glutamate receptors. All these products were bought from Sigma, St Louis, Mo. At 25 and 50 days, veratridine was used repeatedly at 37.5-min intervals. At 15 days, veratridine was used at 52.5-min intervals, i.e. beyond the period of refractoriness caused by the inhibitory autofeedback of GnRH(11). The secretory response of GnRH was calculated as the difference between the concentration measured immediately before and during exposure to the secretagogue.
(§2) We studied the effects of the in-vitro exposure to increasing concentrations of recombinant hIGF-I (Kabi-Pharmacia, Stockholm, Sweden) or its two subproducts, (1-3)IGF-I (Peninsula, Merseyside, England) and (4-70)IGF-I (Gropep, Adelaide, Australia). We also studied the effects of other peptides. The GnRH fragments and analogs included (1-5) GnRH (UCB, Brussels, Belgium), (2-10)GnRH (Sigma, St Louis, Mo., USA) and (1-9)GnRHa (D-TRP^6-PRO^9-N-Ethylamide GnRH) a GnRH agonist kindly provided by Dr J Rivier (The Salk Institute, California, USA). The bovine Proinsulin and its subproducts included the C-peptide of insulin and insulin itself (Novo-Nordisk, Copenhagen, Denmark). Finally, the GRF-related peptides included (1-43) rat GRP (Bachem, Bubendorf, Switzerland), (1-37) human GRF (Peninsula, Merseyside, England) and (1-29)human GRF (Kabi Pharmacia, Stockholm, Sweden). AP-5 (DL-2-amino-5-phosphonovaleric acid, Sigma), a selective antagonist at NMDA receptors and DNQX (6,7-dinitro-quinoxaline-2,3-dione, Tocris Neuramin, Buckhurst Hill, United Kingdom) a selective antagonist at kainate receptors, were also used. The different peptides or antagonists were used for 15 min, i.e. the 7.5-min fraction before and during exposure to veratridine. We also studied the effects of a single s.c. injection of IGF-I or its subproducts in 15 or 50 day-old rats. Then, the animals were sacrificed and the hypothalamic explants studied 25 min after the injection, this interval being required to obtain plasma concentrations of IGF-I sufficient to affect protein metabolism (A. Skottner, personal communication). At that time, the serum was collected for the assay of IGF-I using a method described elsewhere (15) and testosterone was measured as well using a standard RIA (Sorin Biomedica). The concentration of the studied substances resulting in 50% inhibition of the GnRH secretory response (IC50) was calculated as described earlier (3, 9) and the data were compared by covariance analysis. The occurrence of significant GnRH secretory pulses was determined using the pulsar program (2, 3).
FIG. 1. In vitro effects of IGF-I-related peptides on GnRH secretion by hypothalamic explants at 15, 25 and 50 days. GnRH secretory response to depolarizing episodes (veratridine 50 μM for 7.5 min) was studied repeatedly at intervals of 52.5 min at 15 days or 37.5 min at 25 and 50 days. Such study was performed in control conditions or in the presence of increasing concentrations of IGF-I and subproducts, (4-70)IGF-I and (1-3)IGF-I, as well as AP-5, a competitive antagonist at NMDA receptors. Each experiment was preceded and followed by a veratridine challenge in control conditions.

In the next experiment the test system is NMDA receptors. Description: In vitro GnRH secretion by hypothalamic explants induced by NMA. Type of experiment: cell-based, rat. As to conditions: 10^−6 M; explants of 50-day-old male rats; FIG. 8. As to the method:
as §1, with “At 25 and 50 days, veratridine was used repeatedly at 37.5-min intervals. At 15 days, veratridine was used at 52.5-min intervals, i.e. beyond the period of refractoriness caused by the inhibitory autofeedback of GnRH(11).” left out
(§3) We studied the effects of the in-vitro exposure to increasing concentrations of recombinant hIGF-I (Kabi-Pharmacia, Stockholm, Sweden) or its two subproducts, (1-3)IGF-I (Peninsula, Merseyside, England) and (4-70)IGF-I (Gropep, Adelaide, Australia). […] At that time, the serum was collected for the assay of IGF-I using a method described elsewhere (15) and testosterone was measured as well using a standard RIA (Sorin Biomedica). […] The occurrence of significant GnRH secretory pulses was determined using the pulsar program (2, 3). […]

The subject of experiment [2] is GnRH secretion by hypothalamic explants. Put plainly: In vitro GnRH secretion by hypothalamic explants induced by veratridine (static incubation, GnRH radioimmunoassay). Type of experiment: cell-based, rat. This is another data set of the same source.
The next experiment relates to kainate receptors. Description: In vitro GnRH secretion by hypothalamic explants induced by kainate. It is filed as cell-based, rat. The conditions noted are these: 10^−6 M; explants of 50-day-old male rats; FIG. 8. As to the method: as §1, with “At 25 and 50 days, veratridine was used repeatedly at 37.5-min intervals. At 15 days, veratridine was used at 52.5-min intervals, i.e. beyond the period of refractoriness caused by the inhibitory autofeedback of GnRH(11).” left out
as §3

In a further experiment the test system is glutamate receptors. Description: Displacement of tritiated glutamate from hypothalamic membrane preparations. Type of experiment: binding. The conditions noted are these: FIG. 9. The source says:
Hypothalmic membrane preparations are used to study the displacement of tritiated glutamate binding in the presence of different compounds. Glutamate is able to displace the binding of the tracer at relatively low 10^−6 to 10^−8 concentrations. […] This is because the affinity of tritiated glutamate for the NMDA receptors is less than for the other subtypes of glutamate receptors.

Experiment [3] concerns GnRH secretion by hypothalamic explants. Description: Ex vivo veratridine-induced GnRH secretion by hypothalamic explants after in-vivo s.c. injection. The arrangement: species or system rat.
Description: as §2, with “3). […]” for “3).”

In experiment [4] the test system is brain hypoxic-ischemic injury. As to conditions: reported in refs 22, 23; cited from earlier work.
Experiment [5] concerns GnRH secretion by hypothalamic explants. Put plainly: Spontaneous pulsatile secretion of GnRH from hypothalamic explants after s.c. injection. Type of experiment: in vivo, rat. As to conditions: s.c. injection of 0.1 mg/kg; 50-day-old rats; data not shown.
Description: as §2, with “The different peptides or antagonists were used for 15 min, i.e. the 7.5-min fraction before and during exposure to veratridine. We also studied the effects of a single s.c. injection of IGF-I or its subproducts in 15 or 50 day-old rats. Then, the animals were sacrificed and the hypothalamic explants studied 25 min after the injection, this interval being required to obtain plasma concentrations of IGF-I sufficient to affect protein metabolism (A. Skottner, personal communication).” left out, “The concentration of the studied substances resulting in 50% inhibition of the GnRH secretory response (IC50) was calculated as described earlier (3, 9) and the data were compared by covariance analysis.” left out, “3). […]” for “3).”

The mark [6] stands for this setting: in vitro, explants of 50-day-old rats, FIG. 7.

`NC(CCCP(=O)(O)O)C(=O)O` (racemic) [AP-5, DL-2-amino-5-phosphonovaleric acid, reference compound]: the “effect on veratridine-induced secretion of GnRH” value in experiment [1] (in vitro, explants at 15, 25 and 50 days) is “dose-related suppression”. For the same molecule, in the experiment on NMDA receptors, the “effect on secretion of GnRH induced by NMA” value is listed as “inhibitory effects”.
`CNC(CC(=O)O)C(=O)O` (racemic) [NMA, N-methyl-D, L-aspartate, reference compound]: the “GnRH secretion induced by veratridine 5.10^−5 M” value in experiment [2] (+NMA 5.10^−4 M alone, 50-day-old male rats, mean, n = 6) is on record as 98 % of controls.
On to `O=C1N=c2cc([N+](=O)[O-])c([N+](=O)[O-])cc2=NC1=O` [DNQX, 6,7-dinitro-quinoxaline-2,3-dione], for which the “effect on kainate-induced secretion of GnRH” value in the experiment with kainate receptors was “inhibitory effects”.
For the molecule `N[C@@H](CCC(=O)O)C(=O)O` [Glutamate], the “concentrations displacing the binding of the tracer” value in the experiment with glutamate receptors was 10^−6 to 10^−8.
On to “(1-5)GnRH: peptide with a N-terminal glutamic acid which results from the degradation of GnRH in the hypothalamus (QHWSY; ends and bridges not checked; UniProt P01148 24-28, looked up, fragment)”, for which, in the experiment with glutamate receptors, the “displacement of tritiated glutamate binding” value was “act as competitors of glutamate binding”. Further, the “effect on veratridine-induced secretion of GnRH” value in experiment [1] (FIG. 6) was “inhibited”.
Regarding “(1-29)GRF: human GRF subproduct retaining GH-releasing activity (YADAIFTNSYRKVLGQLSARKLLQDIMSR; Somatoliberin; UniProt P01286 32-60, looked up, fragment) [reference compound]”, the “effect on veratridine-induced secretion of GnRH” value in experiment [1] (setting [6]) is given as “does not affect”.
On the same count and under the same terms, the value for “(1-37)GRF: human GRF subproduct, minor physiological form with a C-terminal glutamic acid (YADAIFTNSYRKVLGQLSARKLLQDIMSRQQGESNQE; Somatoliberin; UniProt P01286 32-68, looked up, fragment)” was “dose-related inhibition”; that for “(1-43)GRF: full (1-43) sequence of rat Growth Hormone-Releasing Factor (HADAIFTSSYRRILGQLYARKLLHEIMNRQQGERNQEQRSRFN; Somatoliberin; UniProt P09916 31-73, looked up) [reference compound]” was “dose-related inhibition”.
Regarding “D-TRP^6-PRO^9-N-Ethylamide GnRH [(1-9)GnRHa, reference compound]”, in experiment [1] (FIG. 6), the “effect on veratridine-induced secretion of GnRH” value is on record as “can be inhibited”. Further, in experiment [1] (FIG. 6, read-out: IC50, inhibition of veratridine-induced GnRH secretion), the IC50 was 0.2 nM.
As for “IGF-I: recombinant hIGF-I (Kabi-Pharmacia)”, the “displacement of tritiated glutamate binding” value in the experiment on glutamate receptors is “act as competitors of glutamate binding”. In experiment [1] (10^−4 and 10^−3 M, explants at 15 days, FIG. 4), the “effect on GnRH secretion at very high concentrations” value is recorded as “inhibition of GnRH secretion”. Further, the “effect on veratridine-induced secretion of GnRH” value was “dose-related inhibition” in experiment [1] (in vitro, explants at 25 and 50 days); “not affected” in experiment [1] (in vitro, explants at 15 days). Also, in experiment [1] (three different peptidase inhibitors, FIG. 5), the “inhibitory effect on GnRH secretion in the presence of peptidase inhibitors” value is given as “can be prevented”. Further, the “period of suppression of the GnRH secretory response to veratridine” value in experiment [3] (s.c. 0.05-0.2 mg/kg, directly related to dose, 50-day-old animals) fell in the range of 47.5 to 107.5 min. Also, in experiment [3] (s.c. injection, higher doses at 15 days, FIG. 3), the “ex vivo effectiveness on veratridine-induced GnRH secretion at 15 and 50 days” value is listed as “only effective at 50 days”. For the same molecule, the “period of marked inhibition of in-vitro GnRH secretion in response to veratridine” value in experiment [3] (single s.c. injection of 0.5 mg/kg, 50-day-old animals) is given as “up to 167.5 min”. Further, the “protection against brain hypoxic-ischemic injury” value in experiment [4] was “can protect”. Further, the “effect on GnRH secretion from explants of 30-day-old female rats” value in experiment [2] (data not shown) was “inhibited”. Besides, the “period for which spontaneous pulsatile secretion of GnRH is abolished” value in experiment [5] was ~2 h.
For insulin: bovine insulin, the “effect on veratridine-induced secretion of GnRH” value in experiment [1] (setting [6]) is “no effects”.

B1: Proinsulin: bovine Proinsulin (protein, UniProt P01317 25-105, looked up)
pro-form: FVNQHLCGSHLVEALYLVCGERGFFYTPKARREVEGPQVGALELAGGPGAGGLEGPPQKRGIVEQCCASVCSLYQLENYCN
modifications: pro-form
In the case of B1, in experiment [1] (setting [6]), the “effect on veratridine-induced secretion of GnRH” value was “dose-related suppression”.
